A short description of series [1]: Particle size of paclitaxel nanoparticles lots (ACCUSIZER 780). It counts as physicochemical. Conditions: number-weighted differential distribution; nanoparticle API lot. The procedure: Max. Concentration: 9000 particles/mL, No. containers: 1, Sensor Range: Summation, Lower Detection Limit: 0.5 μm, Flow Rate: 30 mL/min, No. Analysis pulls: 4, Time between pulls: 1 sec, Pull volume: 10 mL, Tare Volume: 1 mL, Prime volume: 1 mL, Include First Pull: Not Selected.
Vortexed for 5-10 minutes and sonicated in a water batch for 1 minute.
Filled a plastic bottle with filtered (0.22 μm) 0.1% w/w SDS solution and analyzed the Background.

Series [2] can be described thus: Specific surface area (BET isotherm). The class given is physicochemical. Conditions: lots used in the formulas. The procedure:
(§1) As used herein, the “specific surface area (SSA)” is the total surface area of the taxane nanoparticle per unit of taxane mass as measured by the Brunauer-Emmett-Teller (“BET”) isotherm by the following method: a known mass between 200 and 300 mg of the analyte is added to a 30 mL sample tube. […] The automated test is then carried out using the BETWIN® software package and the surface area of each sample is subsequently calculated. The bulk density measurement can be conducted by pouring the taxane nanoparticles into a graduated cylinder without tapping at room temperature, measuring the mass and volume, and calculating the bulk density.

Series [3] in a line: Bulk density (not tapped). It counts as physicochemical. Conditions: lots used in the formulas. The procedure:
as §1

Series [4] in a line: Observation of paclitaxel nanoparticle crystals in various substances and solutions (light microscopy). It counts as physicochemical.
For series [5] the following is noted: methanol/water 15/85 (v/v), 37° C., pH 7, USP Apparatus II 75 rpm, PCT/US16/35993, cited from earlier work.
[6] abbreviates: in Aluminum sulfate 0.1-0.2% in water, 7 days, RT.
Where [7] appears, read: in Ammonium lauryl sulfate 2% in water, 3 days, RT.
[8] abbreviates: in Benzalkonium chloride (50%) 2% in water, 7 days & 21 days, RT.
[9] abbreviates: in CARBOPOL ULTREZ 10 (with Ammonium hydroxide as neutralizer) 0.5% in water, 8 days & 21 days, RT.
Setting [10] is: in Castor Oil 100%, 24 hrs & 9 days, RT.
Setting [11] is: in Dimethicone, 1000 cSt 100%, 24 hrs & 6 days, RT.
Setting [12] is: in FOMBLIN HC04 100%, 4, 7 & 13 days, RT.
Where [13] appears, read: in Hydroxyethyl cellulose 1% in water, 7 days, RT.
[14] abbreviates: in Hydroxypropyl methylcellulose 1% in water, 3 days, RT.
[15] abbreviates: in Lecithin 1% in water, 24 hrs, RT.
Setting [16] is: in Light Mineral Oil NF 100%, 3 days, RT & 40 C.
Setting [17] is: in Magnesium nitrate 5% in water, 3 days, RT.
The mark [18] stands for this setting: in Mannitol 5% in water, 7 days, RT.
The mark [19] stands for this setting: in Mineral Oil USP (heavy) 100%, 3 days, RT & 40 C.
The mark [20] stands for this setting: in PEG 400 10% in water, 22 days, RT & 60 C.
The mark [21] stands for this setting: in Poloxamer 188 2% in water, 7 days, RT.
The mark [22] stands for this setting: in Poloxamer 407 2% in water, 5 & 7 days, RT.
The mark [23] stands for this setting: in Polyoxyl 40 Hydrogenated Castor Oil (KOLLIPHOR RH40) 1% in water, 6 days, RT.
Setting [24] is: in Polysorbate 80 0.5% in Saline, 7 days, RT & 60 C.
Where [25] appears, read: in Polysorbate 80 0.5% in water, 22 days, RT & 60 C.
The mark [26] stands for this setting: in Povidone 1% in water, 7 days & 21 days, RT.
[27] abbreviates: in Proline 3% in water, 7 days, RT.
Setting [28] is: in Purified Water 100%, 5 days, RT & 60 C.
Where [29] appears, read: in ST-Cyclomethicone 5 NF 100%, 24 hrs & 13 days, RT.
The mark [30] stands for this setting: in Saline 0.9% NaCl in water, 7 days, RT & 60 C.
The mark [31] stands for this setting: in Sodium lauryl sulfate 2% in water, 7 days, RT.
The mark [32] stands for this setting: in Sodium phosphate monobasic 0.75% in water, 7 days, RT.
Setting [33] is: in Sorbitol 5% in water, 7 days, RT.
The mark [34] stands for this setting: in Vitamin E TPGS 0.5% in water, 6 days, RT.
The mark [35] stands for this setting: in Zinc acetate […] in water, 7 days, RT.

Molecules are shown by their SMILES. Like-named read-outs stand apart in the source and are kept apart here.

For `CC(=O)O[C@H]1C(=O)[C@@]2(C)[C@H]([C@H](OC(=O)c3ccccc3)[C@]3(O)C[C@H](OC(=O)[C@H](O)[C@@H](NC(=O)c4ccccc4)c4ccccc4)C(C)=C1C3(C)C)[C@]1(OC(C)=O)CO[C@@H]1C[C@@H]2O` [Paclitaxel nanoparticles lot used in formulas listed in Tabl] [listing 1 of 2 here], in series [1], the “Particle size, Mean” value came to 0.861 μm; the “Particle size, Median” value came out at 0.710 μm; the “Particle size, Mode” value worked out at 0.572 μm. Also, in series [2], the “Specific surface area (SSA)” value was 41.24 m^2/g. Further, the “Bulk density (not-tapped)” value in series [3] amounted to 0.05 g/mL.

In the case of `CC(=O)O[C@H]1C(=O)[C@@]2(C)[C@H]([C@H](OC(=O)c3ccccc3)[C@]3(O)C[C@H](OC(=O)[C@H](O)[C@@H](NC(=O)c4ccccc4)c4ccccc4)C(C)=C1C3(C)C)[C@]1(OC(C)=O)CO[C@@H]1C[C@@H]2O` [Paclitaxel nanoparticles lot used in formulas listed in Tabl] [listing 2 of 2 here], the “Particle size, Mean” value in series [1] is on record as 0.83 μm. For the same molecule, in series [2], the “Specific surface area (SSA)” value worked out at 26.72 m^2/g. Also, in series [3], the “Bulk density (not-tapped)” value turned out to be 0.09 g/mL.

In the case of `CC(=O)O[C@H]1C(=O)[C@@]2(C)[C@H]([C@H](OC(=O)c3ccccc3)[C@]3(O)C[C@H](OC(=O)[C@H](O)[C@@H](NC(=O)c4ccccc4)c4ccccc4)C(C)=C1C3(C)C)[C@]1(OC(C)=O)CO[C@@H]1C[C@@H]2O` [Paclitaxel nanoparticles, paclitaxel], the “Crystal size (light microscopy)” value in series [4] (setting [6]) is listed as above 5 μm; in series [4] (setting [7]), above 5 μm; in series [4] (setting [8]), below 5 μm; in series [4] (setting [9]) it was below 5 μm; in series [4] (setting [10]), below 5 μm; in series [4] (setting [11]) it was below 5 μm. For the same molecule, the “Crystal size (light microscopy)” value was below 5 μm in series [4] (setting [12]); above 5 μm in series [4] (setting [13]); above 5 μm in series [4] (setting [14]); above 10 μm in series [4] (setting [15]); below 5 μm in series [4] (setting [16]); above 5 μm in series [4] (setting [17]). For the same molecule, the “Crystal size (light microscopy)” value in series [4] (setting [18]) was above 5 μm; in series [4] (setting [19]), below 5 μm; in series [4] (setting [20]), above 5 μm; in series [4] (setting [21]), above 5 μm; in series [4] (setting [22]), below 5 μm; in series [4] (setting [23]), below 5 μm. The “Crystal size (light microscopy)” value in series [4] (setting [24]) was above 5 μm; in series [4] (setting [25]), below 5 μm; in series [4] (setting [26]), below 5 μm; in series [4] (setting [27]) it was above 5 μm; in series [4] (setting [28]), above 5 μm; in series [4] (setting [29]), below 5 μm. Also, the “Crystal size (light microscopy)” value in series [4] (setting [30]) is listed as above 10 μm; in series [4] (setting [31]), above 5 μm; in series [4] (setting [32]), above 5 μm; in series [4] (setting [33]), above 5 μm; in series [4] (setting [34]), below 5 μm; in series [4] (setting [35]) it was above 5 μm. Also, the “Needle shaped crystals observed? (visual observation by light microscopy)” value (“Needle shaped crystals observed?” below) in series [4] (setting [6]) was “Yes”; in series [4] (setting [7]), “Yes”; in series [4] (setting [8]), “No”; in series [4] (setting [9]), “No”; in series [4] (setting [10]) it was “No”; in series [4] (setting [11]) it was “No”. Moreover, the “Needle shaped crystals observed?” value in series [4] (setting [12]) is reported as “No”; in series [4] (setting [13]), “Yes”; in series [4] (setting [14]), “Yes”; in series [4] (setting [15]), “Yes”; in series [4] (setting [16]), “No”; in series [4] (setting [17]) it was “Yes”. For the same molecule, the “Needle shaped crystals observed?” value in series [4] (setting [18]) is “Yes”; in series [4] (setting [19]), “No”; in series [4] (setting [20]), “Yes”; in series [4] (setting [21]), “Yes”; in series [4] (setting [22]), “No”; in series [4] (setting [23]), “Yes”. For the same molecule, the “Needle shaped crystals observed?” value in series [4] (setting [24]) was “Yes”; in series [4] (setting [25]) it was “Yes”; in series [4] (setting [26]) it was “Yes”; in series [4] (setting [27]) it was “Yes”; in series [4] (setting [28]), “Yes”; in series [4] (setting [29]) it was “No”. Also, the “Needle shaped crystals observed?” value in series [4] (setting [30]), in series [4] (setting [31]), in series [4] (setting [32]), in series [4] (setting [33]), in series [4] (setting [34]) and in series [4] (setting [35]) was “Yes” in each case. The Crystal growth entry is reported as “did not grow” in series [4] (in any of the hydrophobic carriers) and “did not grow” in series [4] (in aqueous solutions of benzalkonium chloride, CARBOPOL ULTREZ 10, or poloxamer 407).

Take `CC(=O)O[C@@]12CO[C@@H]1C[C@H](O)[C@@]1(C)C(=O)[C@H](O)C3=C(C)[C@@H](OC(=O)[C@H](O)[C@@H](NC(=O)OC(C)(C)C)c4ccccc4)C[C@@](O)([C@@H](OC(=O)c4ccccc4)[C@H]21)C3(C)C` [docetaxel nanoparticles produced by milling] [reference compound]: in series [5] (listed as docetaxel nanoparticles made by milling), the “Dissolution rate, % dissolved in 30 minutes” value is 9%.

On to `CC(=O)O[C@@]12CO[C@@H]1C[C@H](O)[C@@]1(C)C(=O)[C@H](O)C3=C(C)[C@@H](OC(=O)[C@H](O)[C@@H](NC(=O)OC(C)(C)C)c4ccccc4)C[C@@](O)([C@@H](OC(=O)c4ccccc4)[C@H]21)C3(C)C` [docetaxel nanoparticles, docetaxel], for which the “Dissolution rate, % dissolved in 30 minutes” value in series [5] is recorded as 27%.

The record behind these values is patent US10449162B2, “Delivery of drug nanoparticles and methods of use thereof” (DFB Soria, LLC, priority 2015, dated 2019).
